Experimental data taken from US20080039629A1, “Benzothniazole compositions and their use as ubiquition ligation inhibitors” (RIGEL PHARMACEUTICALS, INC., priority 2003, published 2008).

Biological target: T1, E1 and His-E2 Ubch10 (Homo sapiens, UniProt P22314)
T1 construct: host or cells: E. coli (His-Ubch10); Sf9 insect cells (E1)
T1 sequence (P22314 1-1058): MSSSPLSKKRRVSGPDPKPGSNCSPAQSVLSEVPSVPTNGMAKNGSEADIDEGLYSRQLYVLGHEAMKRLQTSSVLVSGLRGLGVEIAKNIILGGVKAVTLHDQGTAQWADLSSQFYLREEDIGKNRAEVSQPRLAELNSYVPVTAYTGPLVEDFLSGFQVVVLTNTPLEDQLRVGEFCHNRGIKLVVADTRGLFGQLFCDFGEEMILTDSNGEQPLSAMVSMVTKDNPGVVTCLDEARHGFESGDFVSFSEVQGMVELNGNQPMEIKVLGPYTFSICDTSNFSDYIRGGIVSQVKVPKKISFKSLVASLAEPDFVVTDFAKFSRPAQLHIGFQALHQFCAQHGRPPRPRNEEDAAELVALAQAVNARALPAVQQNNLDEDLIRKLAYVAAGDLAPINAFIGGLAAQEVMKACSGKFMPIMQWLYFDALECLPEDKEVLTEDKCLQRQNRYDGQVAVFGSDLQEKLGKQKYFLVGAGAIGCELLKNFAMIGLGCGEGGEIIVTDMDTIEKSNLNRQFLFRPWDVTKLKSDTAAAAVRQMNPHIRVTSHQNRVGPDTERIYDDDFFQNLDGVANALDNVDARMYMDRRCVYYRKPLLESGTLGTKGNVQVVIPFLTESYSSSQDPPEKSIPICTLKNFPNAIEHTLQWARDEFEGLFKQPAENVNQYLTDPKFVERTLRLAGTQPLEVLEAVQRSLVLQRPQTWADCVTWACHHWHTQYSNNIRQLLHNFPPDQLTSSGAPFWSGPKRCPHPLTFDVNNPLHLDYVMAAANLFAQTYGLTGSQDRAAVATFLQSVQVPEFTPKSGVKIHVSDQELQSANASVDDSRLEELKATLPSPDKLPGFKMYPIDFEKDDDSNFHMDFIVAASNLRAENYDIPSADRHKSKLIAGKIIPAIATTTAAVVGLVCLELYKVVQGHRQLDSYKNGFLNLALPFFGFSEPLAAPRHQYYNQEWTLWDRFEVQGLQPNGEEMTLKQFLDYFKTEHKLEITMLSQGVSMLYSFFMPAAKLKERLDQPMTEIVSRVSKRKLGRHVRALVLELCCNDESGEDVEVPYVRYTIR
Test: E1 to E2 transfer assay, His-E2 Ubch10, 1.0 μM ATP (low ATP)
Format: biochemical
Settings: Table 5, ATP inhibition properties; inhibition measured using IC50 values
Source text: Biological assays for determining the transfer of ubiquitin from the E1 activating agent to the E2 conjugating agent are described in U.S. patent application Ser. Nos. 09/542,497 and 09/826,312 as well as in the PCT Application WO 01/75145, all of which are incorporated by reference in their entirety. The following assay example illustrates one way by which the ubiquitin ligase inhibitory activity of the compounds of the invention can be assayed. This assay example is not meant to limit in any way the use of the compounds of the invention as ubiquitin ligase inhibitors.
The attachment of a ubiquitin moiety to the E2 conjugating agent was assayed using Flag-ubiquitin that was purified from E. coli, E2 Ubch10 that was purified as a His-Ubch10 from E. coli, and E1 that was purified from Sf9 insect cells (Affiniti Research Products, Exeter, U.K.). The wells of a Nickel-substrate 96-well plate (Pierce Chemical) were blocked with 100 μl of 1% casein/phosphate buffered saline (PBS) for 1 hour at room temperature. The blocked Nickel-substrate plate was then washed three times with 200 μl of PBST (0.1% Tween-20 in PBS). Subsequently, Flag-ubiquitin reaction solution was added to each well so that the final concentration was 62.5 mM Tris pH 7.5, […], 0.75 mM DTT, 1.0 μM ATP (low ATP), and 100 ng Flag-ubiquitin. The final reaction solution volume was fixed to 80 μl with Millipore-filtered water. To this was added the following: a ubiquitin agent inhibitor in 10 μl of DMSO, 10 μl of E1 and His-E2 Ubch10 in 20 mM Tris buffer, pH 7.5, and 5% glycerol so that there was 10 ng/well of E1 and 20 ng/well of His-E2 Ubch10. The reaction was then allowed to proceed at room temperature for 1 hour.
After 1 hour, the wells were washed three times with 200 μl of PBST and the amount of E2-ubiquitin complex was measured. For measuring the amount of the E2-ubiquitin complex, 100 μl of Mouse anti-flag diluted 1:10,000 (Sigma Aldrich Fluka Chemicals, St. Louis, Mo.) and anti-mouse HRP diluted 1:15,000 (Jackson Immunoresearch labs, West Grove, Pa.) in PBST were added to each well and allowed to incubate at room temperature for another hour. The wells were then washed three times with 200 μl of PBST and 100 μl of luminol substrate (⅕ dilution) was added. The luminescence of each well was then measured using a […] to calculate the amount of E2-ubiquitin complex. This procedure was repeated using His-E2 Ubch5C instead of His-E2 Ubch10.
The table below illustrates the inhibitory properties of the pharmaceutical compostions of the invention comprising the compounds listed in the table using the assays described above. Inhibition was measured using IC50 values.

SMILES	UBC10
CCCc1ccc(C(=O)Nc2nc3ccc(OC)cc3s2)cc1 [Compound 81, N-(6-methoxybenzo[d]thiazol-2-yl)-4-propylbenzamide]	++ (++ indicates inhibition at 50 μM or or less)
CCCCc1ccc(C(=O)Nc2nc3ccc(OC)cc3s2)cc1 [Compound 82, 4-butyl-N-(6-methoxybenzo[d]thiazol-2-yl)benzamide]	++ (++ indicates inhibition at 50 μM or or less)
CCCCCCc1ccc(C(=O)Nc2nc3ccc(OC)cc3s2)cc1 [Compound 83, 4-hexyl-N-(6-methoxybenzo[d]thiazol-2-yl)benzamide]	−− (−− indicates marginal or no inhibition detected with this assay)
Cc1ccc(C(=O)Nc2nc3ccccc3s2)cc1 [Compound 84, N-(benzo[d]thiazol-2-yl)-4-methylbenzamide]	++ (++ indicates inhibition at 50 μM or or less)
CCc1ccc(C(=O)Nc2nc3ccccc3s2)cc1 [Compound 85, N-(benzo[d]thiazol-2-yl)-4-ethylbenzamide]	++ (++ indicates inhibition at 50 μM or or less)
Nc1ccc(C(=O)Nc2nc3ccccc3s2)cc1 [Compound 86, 4-amino-N-(benzo[d]thiazol-2-yl)benzamide]	−− (−− indicates marginal or no inhibition detected with this assay)
COc1ccc2nc(NC(=O)c3ccco3)sc2c1 [Compound 87, N-(6-methoxybenzo[d]thiazol-2-yl)furan-2-carboxamide]	++ (++ indicates inhibition at 50 μM or or less)
O=C(Nc1nc2ccccc2s1)c1ccco1 [Compound 88, N-(benzo[d]thiazol-2-yl)furan-2-carboxamide]	−− (−− indicates marginal or no inhibition detected with this assay)
O=C(Nc1nc2ccccc2s1)c1cccs1 [Compound 89, N-(benzo[d]thiazol-2-yl)thiophene-2-carboxamide]	−− (−− indicates marginal or no inhibition detected with this assay)
CCOc1ccc2nc(NC(=O)c3ccc4c(c3)OCCO4)sc2c1 [Compound 90, N-(6-ethoxybenzo[d]thiazol-2-yl)-2,3-dihydrobenzo[b][1,4]dioxine-6-carboxamide]	++ (++ indicates inhibition at 50 μM or or less)
CCOc1ccc2nc(NC(=O)c3ccc(CC)cc3)sc2c1 [Compound 91, N-(6-ethoxybenzo[d]thiazol-2-yl)-4-ethylbenzamide]	−− (−− indicates marginal or no inhibition detected with this assay)
CCOc1ccc2nc(NC(=O)c3ccc(C)cc3)sc2c1 [Compound 92, N-(6-ethoxybenzo[d]thiazol-2-yl)-4-methylbenzamide]	−− (−− indicates marginal or no inhibition detected with this assay)
CCOc1ccc2nc(NC(=O)c3ccc(C)c(C)c3)sc2c1 [Compound 93, N-(6-ethoxybenzo[d]thiazol-2-yl)-3,4-dimethylbenzamide]	−− (−− indicates marginal or no inhibition detected with this assay)
CCOc1ccc2nc(NC(=O)c3ccc(NC(C)=O)cc3)sc2c1 [Compound 94, 4-acetamido-N-(6-ethoxybenzo[d]thiazol-2-yl)benzamide]	−− (−− indicates marginal or no inhibition detected with this assay)
COc1ccc2nc(NC(=O)c3ccc(Cl)c(Cl)c3)sc2c1 [Compound 95, 3,4-dichloro-N-(6-methoxybenzo[d]thiazol-2-yl)benzamide]	++ (++ indicates inhibition at 50 μM or or less)
CCOc1ccc2nc(NC(=O)c3ccc(Cl)c(Cl)c3)sc2c1 [Compound 96, 3,4-dichloro-N-(6-ethoxybenzo[d]thiazol-2-yl)benzamide]	++ (++ indicates inhibition at 50 μM or or less)
COc1ccc2nc(NC(=O)NC34CC5CC(CC(C5)C3)C4)sc2c1 [Compound 97, N-1-adamantyl-N′-(6-methoxy-1,3-benzothiazol-2-yl)urea]	++ (++ indicates inhibition at 50 μM or or less)
COc1ccc2nc(NC(=O)Nc3ccccc3)sc2c1 [Compound 98, 1-(6-methoxybenzo[d]thiazol-2-yl)-3-phenylurea]	−− (−− indicates marginal or no inhibition detected with this assay)
COc1ccc2nc(NC(=O)Nc3ccc(Cl)cc3)sc2c1 [Compound 99, 1-(4-chlorophenyl)-3-(6-methoxybenzo[d]thiazol-2-yl)urea]	−− (−− indicates marginal or no inhibition detected with this assay)
COc1ccc2nc(NC(=O)Nc3cccc(F)c3)sc2c1 [Compound 100, 1-(3-fluorophenyl)-3-(6-methoxybenzo[d]thiazol-2-yl)urea]	++ (++ indicates inhibition at 50 μM or or less)
COc1ccc2nc(NC(=O)c3ccc(C)cc3C)sc2c1 [Compound 101, N-(6-methoxybenzo[d]thiazol-2-yl)-2,4-dimethyibenzamide]	++ (++ indicates inhibition at 50 μM or or less)
COc1ccc2nc(NC(=O)c3sccc3C)sc2c1 [Compound 103, N-(6-methoxybenzo[d]thiazol-2-yl)-3-methylthiophene-2-carboxamide]	++ (++ indicates inhibition at 50 μM or or less)
COc1ccc2nc(NC(=O)c3sccc3Cl)sc2c1 [Compound 104, 3-chloro-N-(6-methoxybenzo[d]thiazol-2-yl)thiophene-2-carboxamide]	−− (−− indicates marginal or no inhibition detected with this assay)
COc1ccc(OC)c(NC(=O)Nc2nc3ccc(OC)cc3s2)c1 [Compound 120, 1-(2,5-dimethoxyphenyl)-3-(6-methoxybenzo[d]thiazol-2-yl)urea]	++ (++ indicates inhibition at 50 μM or or less)
COc1ccc2nc(NC(=O)Nc3cccc(Cl)c3Cl)sc2c1 [Compound 124, 1-(2,3-dichlorophenyl)-3-(6-methoxybenzo[d]thiazol-2-yl)urea]	−− (−− indicates marginal or no inhibition detected with this assay)
CCOC(=O)c1ccc(NC(=O)Nc2nc3ccc(OC)cc3s2)cc1 [Compound 126]	−− (−− indicates marginal or no inhibition detected with this assay)
CCOC(=O)c1ccc(NC(=O)Nc2nc3ccc(OCC)cc3s2)cc1 [Compound 136, ethyl 4-(3-(6-ethoxybenzo[d]thiazol-2-yl)ureido)benzoate]	−− (−− indicates marginal or no inhibition detected with this assay)
COc1ccc2nc(NC(=O)Nc3ccc(C#N)cc3)sc2c1 [Compound 137, 1-(4-cyanophenyl)-3-(6-methoxybenzo[d]thiazol-2-yl)urea]	−− (−− indicates marginal or no inhibition detected with this assay)
COc1ccc2nc(NC(=O)c3cccs3)sc2n1 [Compound 138, N-(5-methoxythiazolo[5,4-b]pyridin-2-yl)thiophene-2-carboxamide]	++ (++ indicates inhibition at 50 μM or or less)
